Experimental findings from US20140194392A1 (priority 2013, published 2014) are described below.

In assay [1] the target is Bac-NA^WT (Influenza A virus, UniProt Q6DPL2). Type of assay: biochemical.
Assay [2] addresses NA of influenza NIBRG14 (H5N1) (Influenza A virus, UniProt Q6DPL2). The assay is classed as biochemical.
Assay [3] deals with A/WSN/33. Type of assay: cell-based, influenza A/WSN/33 (H1N1).
In assay [4] the test system is A/Udorn/72 (H3N2). Description: microbe, parasite or virus in culture. Particulars: Influenza A virus, H3N2, MDCK, read-out: EC50 for viral plaque formation. Type of assay: cell-based, influenza A/Udorn/72 (H3N2).
Assay [5] has as its system influenza A/WSN/33 (H1N1). Nature of the assay: microbe, parasite or virus in culture. Type of assay: cell-based. Particulars: MDCK, read-out: EC50 for viral plaque formation.
The test system of assay [6] is A/WSN/33 (H1N1). Type of assay: cell-based, influenza A/WSN/33 (H1N1).

Bac-NA^WT, sequence (Q6DPL2 63-449 limits assumed): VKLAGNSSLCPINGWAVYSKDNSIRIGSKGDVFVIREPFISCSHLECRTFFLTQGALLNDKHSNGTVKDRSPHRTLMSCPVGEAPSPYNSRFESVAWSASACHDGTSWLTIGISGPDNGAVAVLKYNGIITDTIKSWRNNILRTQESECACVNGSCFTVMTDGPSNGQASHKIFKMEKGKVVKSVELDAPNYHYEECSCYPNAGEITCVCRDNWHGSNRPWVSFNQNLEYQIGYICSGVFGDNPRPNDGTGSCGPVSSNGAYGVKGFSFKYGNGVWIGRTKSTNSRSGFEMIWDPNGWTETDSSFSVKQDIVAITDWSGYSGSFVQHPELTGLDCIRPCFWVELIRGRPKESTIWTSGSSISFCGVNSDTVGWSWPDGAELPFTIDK
NA of influenza NIBRG14 (H5N1), sequence (Q6DPL2 whole entry, looked up): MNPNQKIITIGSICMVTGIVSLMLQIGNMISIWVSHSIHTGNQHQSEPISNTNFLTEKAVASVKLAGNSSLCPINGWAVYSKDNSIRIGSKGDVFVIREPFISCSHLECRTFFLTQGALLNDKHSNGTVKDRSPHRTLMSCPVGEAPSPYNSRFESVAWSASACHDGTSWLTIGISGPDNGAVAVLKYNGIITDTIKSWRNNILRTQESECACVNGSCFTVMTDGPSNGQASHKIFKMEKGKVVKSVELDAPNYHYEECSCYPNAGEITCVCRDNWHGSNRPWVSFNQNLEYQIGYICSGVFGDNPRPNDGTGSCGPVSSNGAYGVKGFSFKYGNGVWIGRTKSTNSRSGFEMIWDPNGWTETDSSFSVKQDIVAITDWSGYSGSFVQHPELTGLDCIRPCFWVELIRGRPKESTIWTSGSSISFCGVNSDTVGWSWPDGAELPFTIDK

For `Nc1c(S(=O)(=O)O)cc(Nc2cccc(S(=O)(=O)CCOS(=O)(=O)O)c2)c2c1C(=O)c1ccccc1C2=O` [RB19, remazol brilliant blue R], the IC50 (usually the concentration that inhibits the measured activity by half) in assay [1] was 3.4 µM; in assay [2], 5.7 µM. For the same molecule, the influenza-induced cytopathic effect result in assay [3] is given as “inhibited the influenza-induced cytopathic effect”. In addition, the EC50 (as a rule, the concentration giving half of the maximal effect) in assay [4] was found to be 2.8 µM; in assay [5], 2.7 µM. Also, the “virus yields (fluorogenic signal of NA activity)” value in assay [6] is “dramatically reduced virus yields”.
